Laboratory results reported in ChEMBL document CHEMBL1143803, “Syntheses, characterization and in vitro antiamoebic activity of new Pd(II) complexes with 1-N-substituted thiocarbamoyl-3,5-diphenyl-2-pyrazoline derivatives” (Eur J Med Chem, 2007).

What follows are compounds tested on Entamoeba histolytica (assay: Antiamoebic activity against Entamoeba histolytica HM-1:IMSS after 72 hrs).
Type: functional, organism-based
`Cc1ccccc1NC(=S)N1N=C(c2ccccc2)CC1c1ccccc1` (stereo not drawn) was tested, and the IC50 was 4790 nM.
For `S=C(NCc1ccccc1Cl)N1N=C(c2ccccc2)CC1c1ccccc1` (stereo not drawn), the IC50 was 11000 nM.
With `S=C(N1CCN(c2ccccc2)CC1)N1N=C(c2ccccc2)CC1c1ccccc1` (stereo not drawn) the IC50 was 1800 nM.
With `S=C(N1CCC(Cc2ccccc2)CC1)N1N=C(c2ccccc2)CC1c1ccccc1` (stereo not drawn) the IC50 was 1600 nM.
Work on `Cc1cccc(NC(=S)N2N=C(c3ccccc3)CC2c2ccccc2)c1` (stereo not drawn) yielded an IC50 of 10700 nM.
In the case of `CN(Cc1ccccc1)C(=S)N1N=C(c2ccccc2)CC1c1ccccc1` (stereo not drawn), the IC50 is reported as 2800 nM.
Compound `S=C(N1CCCc2ccccc21)N1N=C(c2ccccc2)CC1c1ccccc1` (stereo not drawn) has an IC50 of 450 nM.
In the case of `Cc1ccc(NC(=S)N2N=C(c3ccccc3)CC2c2ccccc2)cc1` (stereo not drawn), the IC50 is reported as 380 nM.
